One data set relates to HCT-8 cells. Briefly: Compound cytotoxicity assay (WST-1 cell proliferation reagent). How it is done:
A colorimetric assay using the cell proliferation reagent WST-1 (Roche, USA) for the quantification of cell viability was performed. […] When the cells were confluent, the old medium was replaced with fresh medium with or without varying concentrations of chemical compound. After 24 h of culture, 10 μl of the cell proliferation reagent WST-1, (for quantification of cell viability) was added to each well, mixed and the plates incubated for 1 h at 37 C with 5% CO2 in the dark. […] Three independent assays were performed and the dose–response curves of the means of triplicate assays were generated using GraphPad PRISM software to derive the half maximal inhibitory concentration (IC50) of compounds in HCT-8 cells.
Background: Tetrazolium assays rely on reduction of a dye to a coloured formazan, in cell work by metabolically active cells.

The target of data set [1] is recombinant CpLDH protein (Cryptosporidium parvum, UniProt Q9GT92, F198L/K295E/R251K).

Where two headings read alike, the source gives them in different places.

Usually IC50 stands for the concentration needed to halve the response being measured. As for `CC(=O)Nc1ccc(-c2nc3ccccc3s2)cc1` [NSC33006], it took 87.3 µM to reach half-maximal inhibition in the data set with HCT-8 cells (IC50). Besides, the “MEAN CpLDH INHIBITION (%)” value in data set [1] is on record as 13.74%.

For the compound `CC1=C(CCC(=O)O)c2cc3nc(cc4[nH]c(cc4C)cc4[nH]c(cc1n2)cc4C)C(C)=C3CCC(=O)O` [NSC18298], in the data set with HCT-8 cells, the IC50 is 81.9 µM. Further, the “MEAN CpLDH INHIBITION (%)” value in data set [1] is reported as 53.86%. On to `O=C(O)[C@@H]1[C@H](C(=O)O)[C@]2(Cl)C(Cl)=C(Cl)[C@@]1(Cl)C2(Cl)Cl` [NSC22225], for which the IC50 in the data set with HCT-8 cells worked out at 96.8 µM. The “effect on catalytic activity of recombinant CpLDH (in words)” value in data set [1] was “significantly (P < 0.05) inhibited”. As for `CCOC(=O)Cc1c(C)c2cc(C(=O)c3ccccc3)c(O)cc2oc1=O` [NSC115538], it took 158 µM to reach half-maximal inhibition in the data set with HCT-8 cells (IC50). Also, in data set [1], the “MEAN CpLDH INHIBITION (%)” value is recorded as 0.63%. Consider `Cc1cc(N(CCCl)CCCl)ccc1/C=N/NC(=O)Cc1cc(=O)oc2cc(O)ccc12` [NSC79688], for which, in the data set with HCT-8 cells (read-out: CYTOTOXICITY IC50, HCT-8 cells, 24 h), the 50% inhibitory concentration (IC50) was determined as 145 µM. Further, the “MEAN CpLDH INHIBITION (%)” value in data set [1] was 40.15%. Compound `Cc1ccc2c(sc(-c3ccc4c(c3)sc(-c3ccc(N(C)C)cc3)[n+]4C)[n+]2C)c1S(=O)(=O)[O-].[Cl-]` [NSC71948] yielded an IC50 in the data set on HCT-8 cells of 106 µM. The “MEAN CpLDH INHIBITION (%)” value in data set [1] is recorded as 60.47%. `O=S(=O)(O)c1cc(N=[N+]([O-])c2cc(S(=O)(=O)O)c3ccccc3c2)cc2ccccc12` [NSC37031] yielded an IC50 in the data set on HCT-8 cells of 333 µM. In data set [1], the “effect on catalytic activity of recombinant CpLDH (in words)” value was “significantly (P < 0.05) inhibited”. Turning to `CN1CCN(CN2C(=O)C3C4C=CC(C3C2=O)C2C3C(=O)N(CN5CCN(C)CC5)C(=O)C3C42)CC1` (stereo not shown) [NSC361813], the “MEAN CpLDH INHIBITION (%)” value in data set [1] is on record as -202.91%. On to `COc1cc([C@@H]2c3cc4c(cc3C[C@H]3COC(=O)[C@@H]32)OCO4)cc(OC)c1OC` [NSC403148], for which the “MEAN CpLDH INHIBITION (%)” value in data set [1] is -8.59%. On to `CCC[CH2][Pb]([Cl])([CH2]CCC)[CH2]CCC` [NSC168597], for which the “MEAN CpLDH INHIBITION (%)” value in data set [1] is given as -54.94%.

As for `Nc1ccc2nc3ccc(=O)cc-3n(-c3ccccc3)c2c1` [NSC31702], the “MEAN CpLDH INHIBITION (%)” value in data set [1] is recorded as -41.86%. Same read-out and setting: the figure for `NC(=O)c1c([N+](=O)[O-])cc(C(F)(F)F)cc1[N+](=O)[O-]` [NSC622640] is -12.99%; for `Br.CN(C)c1nc(=NCc2ccco2)ss1` [NSC622608] it is -22.44%. As to `C[N+](C)(C)CC1CCCC1=O.[I-]` (stereo not shown) [NSC621889], in data set [1], the “MEAN CpLDH INHIBITION (%)” value is -0.31%. The same measure, in the same setting: the same measure for `COC(=O)[C@@H]1c2cc3c(c(O)c2[C@@H](OC)C[C@@]1(C)O)C(=O)c1c(O)cc2c(c1C3=O)O[C@H]1O[C@@]2(C)[C@H](O)[C@@H](N(C)C)[C@@H]1O` [NSC102815]: -3.42%; for `COC(=O)[C@@H]1[C@H](O)[C@H](C)[C@H](O)[C@H](C)/C=C\C=C(/C)C(=O)Nc2c(C)c(OC(C)=O)c3c(c2O)C(=O)C(C)=C2OCOC(=C23)/C(C)=C/[C@@](C)(O)[C@H](O)[C@@H](C)[C@H]1OC(C)=O` [NSC156215]: -35.58%; for `COc1ccc(NC2=NCCO2)c2c1CCCC2` [NSC663996]: -51.63%.

For the compound `[Mo]` [NSC622124], the “MEAN CpLDH INHIBITION (%)” value in data set [1] is 0.01%. On to `COc1ccc(-n2/c(=N/C(=S)N(C)C)ss/c2=N\C(=S)N(C)C)cc1` [NSC622586], for which the “MEAN CpLDH INHIBITION (%)” value in data set [1] is on record as -55.77%. The same measure, in the same setting: the figure for `COc1cc(/C=C(\C)c2ccc3c(c2)OCO3)cc(OC)c1OC` [NSC648422] is -69.44%; for `O=C1OC(c2ccco2)=N/C1=C\c1ccc(Cl)c(Cl)c1` [NSC202000] it is -23.71%. Still for that read-out and setting: the figure for `Cl.O=C1C=CC(=O)c2c(O)c(N3CCN(CCOCCO)CC3)c(Br)c(O)c21` [NSC659999] is -30.12%. On to `COc1ccc(-c2cc(-c3ccccc3)nc3c2CC(=O)Nc2ccccc2-3)cc1OC` [NSC682769], for which, in data set [1], the “MEAN CpLDH INHIBITION (%)” value is -0.10%. Turning to `COc1cc2c(c(OC)c1OC)-c1c(cc3c(c1OC)OCO3)CC(C)C(C)(O)C2OC(=O)c1ccccc1` (stereo not shown) [NSC330516], in data set [1], the “MEAN CpLDH INHIBITION (%)” value is -37.93%.

The values above are taken from paper PMC6687188, “Novel lactate dehydrogenase inhibitors with in vivo efficacy against Cryptosporidium parvum” (PLoS Pathogens, 2019).
